From PubChem BioAssay AID328 (DTP/NCI, 2004)
Several values for one entry are separate records, joined by “and”; a condition that tells them apart may be missing. Equal values may be shown once. Toxic doses and inconclusive results are not listed.

Test system: BDF1 mice, P388 leukemia ip, median survival T/C
Assay: NCI In Vivo Anticancer Drug Screen. Data for tumor model P388 Leukemia (intraperitoneal) in B6D2F1 (BDF1) mice
Conditions: endpoint: median survival time, higher = longer survival
In short: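 Compound-treated tumour-bearing mice were compared with vehicle-treated controls. Survival was recorded, and the value is the treated-group measurement divided by the control-group measurement (T/C).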

[1] = dose: 100.0 mg/kg/injection, schedule: Q01DX009 (ip), vehicle: saline with Tween-80
[2] = dose: 100.0 mg/kg/injection, schedule: Q04DX003 (ip), vehicle: saline with Tween-80
[3] = dose: 200.0 mg/kg/injection, schedule: Q01DX009 (ip), vehicle: saline with Tween-80
[4] = dose: 200.0 mg/kg/injection, schedule: Q04DX003 (ip), vehicle: saline with Tween-80
[5] = dose: 400.0 mg/kg/injection, schedule: Q01DX009 (ip), vehicle: saline with Tween-80
[6] = dose: 400.0 mg/kg/injection, schedule: Q04DX003 (ip), vehicle: saline with Tween-80

Cc1cnc2c(N)[nH]nc2n1
T/C (dose: 50.0 mg/kg/injection, schedule: Q04DX003 (ip), vehicle: Klucel (hydroxypropylcellulose) (HPC)): 86 % of control | T/C (dose: 100.0 mg/kg/injection, schedule: Q04DX003 (ip), vehicle: Klucel (hydroxypropylcellulose) (HPC)): 109 % of control | T/C (dose: 200.0 mg/kg/injection, schedule: Q04DX003 (ip), vehicle: Klucel (hydroxypropylcellulose) (HPC)): 100 % of control

CC(=O)Oc1cccnc1C(C#N)C(C)=O (stereo unspecified)
T/C (dose: 50.0 mg/kg/injection, schedule: Q01DX005 (ip), vehicle: saline with Tween-80): 90 % of control | T/C (dose: 100.0 mg/kg/injection, schedule: Q01DX005 (ip), vehicle: saline with Tween-80): 99 % of control | T/C (dose: 200.0 mg/kg/injection, schedule: Q01DX005 (ip), vehicle: saline with Tween-80): 87 % of control

O=C(Cn1cc(F)c(=O)[nH]c1=O)c1ccc(Cl)s1
T/C (dose: 50.0 mg/kg/injection, schedule: Q01DX009 (ip), vehicle: saline with Tween-80): 105 % of control | T/C [1]: 96 % of control | T/C [2]: 94 % of control | T/C [3]: 103 % of control | T/C [4]: 101 % of control | T/C [5]: 103 % of control | T/C [6]: 102 % of control

Cc1ccc(NS(=O)(=O)c2ccc(Br)cc2)c(C)c1
T/C [2]: 100 % of control | T/C [4]: 100 % of control | T/C [6]: 104 % of control

CN1CCC2=C(C1)C(N1CCCCC1)CS(=O)(=O)O2 (stereo unspecified)
T/C (dose: 25.0 mg/kg/injection, schedule: Q04DX002 (ip), vehicle: saline): 93 % of control | T/C (dose: 50.0 mg/kg/injection, schedule: Q04DX002 (ip), vehicle: saline): 97 % of control | T/C (dose: 100.0 mg/kg/injection, schedule: Q04DX002 (ip), vehicle: saline with Tween-80): 93 % of control

CCC(C)NC(=S)N/N=C\C=N/NC(=S)NC(C)CC (stereo unspecified)
T/C (dose: 75.0 mg/kg/injection, schedule: Q01DX009 (ip), vehicle: saline with Tween-80): 99 % of control | T/C (dose: 150.0 mg/kg/injection, schedule: Q01DX009 (ip), vehicle: saline with Tween-80): 92 % of control | T/C (dose: 300.0 mg/kg/injection, schedule: Q01DX009 (ip), vehicle: saline with Tween-80): 103 % of control

CO[C@H]1C[C@H](O[C@H]2CC[C@]3(C=O)[C@H]4CC[C@]5(C)[C@@H](C6=CC(=O)OC6)CC[C@]5(O)[C@@H]4CC[C@]3(O)C2)O[C@H](C)[C@H]1O
T/C (dose: 0.62 mg/kg/injection, schedule: Q01DX010 (ip), vehicle: steriod suspending solution): 95 % of control | T/C (dose: 1.25 mg/kg/injection, schedule: Q01DX010 (ip), vehicle: steriod suspending solution): 90 % of control | T/C (dose: 2.5 mg/kg/injection, schedule: Q01DX010 (ip), vehicle: steriod suspending solution): 95 % of control | T/C (dose: 5.0 mg/kg/injection, schedule: Q01DX010 (ip), vehicle: steriod suspending solution): 90 % of control

Cc1ccc(C(SCC(N)C(=O)O)(c2ccccc2)c2ccccc2)cc1 (stereo unspecified)
T/C (dose: 132.0 mg/kg/injection, schedule: Q04DX003 (ip), vehicle: saline with Tween-80): 260 % of control | T/C [4]: 260 % of control | T/C (dose: 300.0 mg/kg/injection, schedule: Q04DX003 (ip), vehicle: saline with Tween-80): 95 % of control

CN(C)[C@@H]1C(=O)C(C(=O)NCNCCCC(=O)O)=C(O)[C@@]2(O)C(=O)C3=C(O)c4c(O)cccc4[C@@](C)(O)[C@H]3C[C@@H]12
T/C [1]: 95 % of control | T/C [3]: 104 % of control | T/C [5]: 104 % of control

CC1(C)CCCC2(C)C3CCC(C31)C2OC(=O)c1ccc([N+](=O)[O-])cc1 (stereo unspecified)
T/C (dose: 50.0 mg/kg/injection, schedule: Q01DX001 (ip), vehicle: saline with Tween-80): 100 % of control | T/C (dose: 100.0 mg/kg/injection, schedule: Q01DX001 (ip), vehicle: saline with Tween-80): 100 % of control | T/C (dose: 200.0 mg/kg/injection, schedule: Q01DX001 (ip), vehicle: saline with Tween-80): 105 % of control

CC(C1CCC/C(=N\NC(N)=O)C1)[N+](=O)[O-] (stereo unspecified)
T/C (dose: 0.19 mg/kg/injection, schedule: Q01DX009 (ip), vehicle: saline with Tween-80): 103 % of control | T/C (dose: 0.39 mg/kg/injection, schedule: Q01DX009 (ip), vehicle: saline with Tween-80): 101 % of control and 102 % of control and 119 % of control | T/C (dose: 0.78 mg/kg/injection, schedule: Q01DX009 (ip), vehicle: saline with Tween-80): 95 % of control and 99 % of control | T/C (dose: 1.56 mg/kg/injection, schedule: Q01DX009 (ip), vehicle: saline with Tween-80): 96 % of control and 100 % of control and 109 % of control | T/C (dose: 3.12 mg/kg/injection, schedule: Q01DX009 (ip), vehicle: saline with Tween-80): 93 % of control and 108 % of control and 113 % of control | T/C (dose: 6.25 mg/kg/injection, schedule: Q01DX009 (ip), vehicle: saline with Tween-80): 92 % of control and 94 % of control
